Assay results published in ChEMBL document CHEMBL1157366 (Antimicrob Agents Chemother, 2007).
Calls of active or inactive are those of the source. The rule behind the calls is not given here.

Legend:
[1] = molecular target: Diphtheria toxin (Corynebacterium diphtheriae) (UniProt Q5PY51); assay: Protection against diphtheria toxin-mediated cytotoxicity in CHOK1 cells assessed as cell viability after 48 hrs by WST1 dye reduction assay; format: cell-based; conditions: CHO-K1
[2] = molecular target: T1, Calmodulin-sensitive adenylate cyclase (Bacillus anthracis) (UniProt P40136); assay: Inhibition of Bacillus anthracis edema toxin-mediated intoxication in CHOK1 cells assessed as cAMP levels after 4 hrs by HTRF assay; format: cell-based; conditions: CHO-K1
T1 sequence (whole entry): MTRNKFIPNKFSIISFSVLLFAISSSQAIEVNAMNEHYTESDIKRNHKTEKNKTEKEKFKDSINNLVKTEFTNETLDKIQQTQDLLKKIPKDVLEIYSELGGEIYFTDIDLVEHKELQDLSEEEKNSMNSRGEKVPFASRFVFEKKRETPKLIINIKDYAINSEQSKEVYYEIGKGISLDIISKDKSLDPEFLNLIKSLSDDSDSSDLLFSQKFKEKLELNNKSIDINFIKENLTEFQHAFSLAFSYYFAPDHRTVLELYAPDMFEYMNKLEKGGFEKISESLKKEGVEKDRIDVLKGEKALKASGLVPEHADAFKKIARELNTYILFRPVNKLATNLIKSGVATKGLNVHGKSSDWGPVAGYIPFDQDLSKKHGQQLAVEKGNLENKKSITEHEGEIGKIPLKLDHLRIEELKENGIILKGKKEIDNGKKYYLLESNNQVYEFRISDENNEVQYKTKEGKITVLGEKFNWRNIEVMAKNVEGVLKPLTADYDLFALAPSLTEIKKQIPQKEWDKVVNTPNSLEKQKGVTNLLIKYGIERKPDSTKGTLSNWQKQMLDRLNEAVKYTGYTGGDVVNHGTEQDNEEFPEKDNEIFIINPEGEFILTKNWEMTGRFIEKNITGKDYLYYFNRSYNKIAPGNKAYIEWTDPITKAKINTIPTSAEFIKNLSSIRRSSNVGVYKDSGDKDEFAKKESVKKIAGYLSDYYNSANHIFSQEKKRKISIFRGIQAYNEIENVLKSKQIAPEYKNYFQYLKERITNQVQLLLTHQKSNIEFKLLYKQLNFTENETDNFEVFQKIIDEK

CHO-K1 = assay: Inhibition of cholera toxin-mediated intoxication in CHOK1 cells assessed as cAMP levels after 4 hrs by HTRF assay; format: cell-based; conditions: Vibrio cholerae
[3] = molecular target: Protective antigen (Bacillus anthracis) (UniProt P13423); assay: Inhibition of Bacillus anthracis protective antigen binding to cell surface of mouse RAW264.7 cells at 12.5 uM after 2 hrs by flow cytometry; format: cell-based
[4] = molecular target: Protective antigen (Bacillus anthracis) (UniProt P13423); assay: Inhibition of Bacillus anthracis protective antigen pore formation in mouse RAW264.7 cells at 12.5 uM after 2 hrs; format: cell-based
Serum = assay: Drug level in human serum; format: ADME, cell-free; conditions: read-out: Drug uptake
Plasmodium falciparum = assay: Antimalarial activity against Plasmodium falciparum; format: functional, organism-based
[5] = molecular target: T2, Lethal factor (Bacillus anthracis) (UniProt P15917); assay: Protection against Bacillus anthracis lethal toxin-mediated cytotoxicity in mouse RAW264.7 cells assessed as change in viability at 0.125 to 12.5 uM relative to toxin-treated control; format: cell-based
T2 sequence (whole entry): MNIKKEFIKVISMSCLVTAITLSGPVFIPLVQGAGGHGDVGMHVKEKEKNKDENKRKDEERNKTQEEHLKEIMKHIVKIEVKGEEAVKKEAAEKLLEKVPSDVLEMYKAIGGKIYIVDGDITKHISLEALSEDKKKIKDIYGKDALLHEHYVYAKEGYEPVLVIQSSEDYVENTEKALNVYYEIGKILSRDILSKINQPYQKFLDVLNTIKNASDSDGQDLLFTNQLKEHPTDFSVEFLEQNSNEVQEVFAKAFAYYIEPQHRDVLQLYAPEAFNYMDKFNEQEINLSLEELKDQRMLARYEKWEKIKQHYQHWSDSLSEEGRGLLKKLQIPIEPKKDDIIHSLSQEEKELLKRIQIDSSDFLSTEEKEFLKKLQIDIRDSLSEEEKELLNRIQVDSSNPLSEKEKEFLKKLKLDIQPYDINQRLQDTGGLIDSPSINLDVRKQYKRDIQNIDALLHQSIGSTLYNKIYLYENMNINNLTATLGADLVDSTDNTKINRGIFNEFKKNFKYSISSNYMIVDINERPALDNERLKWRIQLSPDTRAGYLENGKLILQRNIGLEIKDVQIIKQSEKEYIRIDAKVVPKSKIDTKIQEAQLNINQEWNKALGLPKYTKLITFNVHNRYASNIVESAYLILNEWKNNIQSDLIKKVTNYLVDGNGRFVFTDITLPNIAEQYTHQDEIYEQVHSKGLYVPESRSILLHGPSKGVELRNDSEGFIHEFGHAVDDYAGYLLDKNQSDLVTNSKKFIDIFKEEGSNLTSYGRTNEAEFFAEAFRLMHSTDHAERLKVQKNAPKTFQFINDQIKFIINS

Rattus norvegicus [6] = assay: Protection against Bacillus anthracis lethal toxin-mediated intoxication in Fischer 344 rat assessed as time to death at 5.4 mg/kg administered through cannula; format: functional
Rattus norvegicus [7] = assay: Protection against Bacillus anthracis lethal toxin-mediated intoxication in Fischer 344 rat assessed as time to death at 54 mg/kg administered through cannula; format: functional
Rattus norvegicus [8] = assay: Toxicity in Bacillus anthracis lethal toxin-mediated intoxicated Fischer 344 rat assessed as adverse side effects administered through cannula; format: organism-based; conditions: in vivo, other

Protective antigen (Bacillus anthracis), sequence (P13423 whole entry): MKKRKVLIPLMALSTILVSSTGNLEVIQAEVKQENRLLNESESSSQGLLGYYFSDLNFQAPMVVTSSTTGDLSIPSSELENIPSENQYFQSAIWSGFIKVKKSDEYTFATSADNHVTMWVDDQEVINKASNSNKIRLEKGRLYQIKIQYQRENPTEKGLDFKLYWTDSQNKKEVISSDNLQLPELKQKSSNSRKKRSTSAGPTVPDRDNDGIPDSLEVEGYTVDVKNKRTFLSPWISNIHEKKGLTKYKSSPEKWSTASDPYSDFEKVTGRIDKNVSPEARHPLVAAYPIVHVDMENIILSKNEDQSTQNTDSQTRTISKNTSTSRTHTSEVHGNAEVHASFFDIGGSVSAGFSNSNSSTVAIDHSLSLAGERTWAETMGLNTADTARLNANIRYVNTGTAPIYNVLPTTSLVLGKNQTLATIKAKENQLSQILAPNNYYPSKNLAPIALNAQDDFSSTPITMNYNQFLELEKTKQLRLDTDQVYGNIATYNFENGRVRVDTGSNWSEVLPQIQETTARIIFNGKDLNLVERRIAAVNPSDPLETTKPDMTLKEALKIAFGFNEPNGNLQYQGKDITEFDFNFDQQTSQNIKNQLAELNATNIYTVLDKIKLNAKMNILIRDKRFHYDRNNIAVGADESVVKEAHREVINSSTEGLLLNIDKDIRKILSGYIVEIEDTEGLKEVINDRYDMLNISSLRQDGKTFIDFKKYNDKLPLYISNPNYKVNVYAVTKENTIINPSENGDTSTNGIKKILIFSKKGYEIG
Diphtheria toxin (Corynebacterium diphtheriae), sequence (Q5PY51 as listed by the source): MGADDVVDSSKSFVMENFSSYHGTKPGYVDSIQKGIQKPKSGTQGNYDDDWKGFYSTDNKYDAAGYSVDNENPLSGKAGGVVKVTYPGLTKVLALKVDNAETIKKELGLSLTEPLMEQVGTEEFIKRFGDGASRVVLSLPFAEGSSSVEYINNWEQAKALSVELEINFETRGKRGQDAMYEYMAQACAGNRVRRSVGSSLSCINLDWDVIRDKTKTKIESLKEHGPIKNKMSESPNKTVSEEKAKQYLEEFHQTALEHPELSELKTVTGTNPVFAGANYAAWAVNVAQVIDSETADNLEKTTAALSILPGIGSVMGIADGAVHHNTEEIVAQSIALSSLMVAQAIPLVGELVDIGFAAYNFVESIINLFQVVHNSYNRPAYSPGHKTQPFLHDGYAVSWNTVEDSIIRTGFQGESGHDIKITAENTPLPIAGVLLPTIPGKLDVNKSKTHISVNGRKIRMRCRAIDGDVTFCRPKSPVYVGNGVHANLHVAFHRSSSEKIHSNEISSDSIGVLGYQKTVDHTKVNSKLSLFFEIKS

With `CC(C)COCC(CN(Cc1ccccc1)c1ccccc1)N1CCCC1` (centres undefined) [BEPRIDIL] the Activity [1] was “Active”, the Activity [2] was “Active” and the Activity (CHO-K1) was “inactive”. For the same compound, the Activity [3] was “inactive”, the Activity [4] was “Active” and the concentration (Serum) was 6.8 µM. It also gave an IC50 (Plasmodium falciparum) of 2500 nM.

`CC1=C(/C=C/C(C)=C/C=C/C(C)=C\C(=O)O)C(C)(C)CCC1` was tested, and the fold change (FC) [5] was 3.2.

Compound `CCCNCC(O)COc1ccccc1C(=O)CCc1ccccc1` (centres undefined) has a fold change (FC) [5] of 3.1.

With `CC1=C(/C=C/C(C)=C/C=C/C(C)=C/C(=O)O)C(C)(C)CCC1` the fold change (FC) [5] was 3.

Compound `N=C(NC(=O)c1nc(Cl)c(N)nc1N)Nc1ccccc1` has a fold change (FC) [5] of 2.8.

In the case of `O=c1[nH]c2cc(C(F)(F)F)ccc2n1-c1cc(C(F)(F)F)ccc1O`, the fold change (FC) [5] is reported as 2.8.

In the case of `CC1=C(/C=C/C(C)=C\C=C\C(C)=C\C(=O)O)C(C)(C)CCC1`, the fold change (FC) [5] is reported as 2.6.

`CC1(C)Oc2ccc(C#N)cc2[C@@H](OC2=CC(=O)CC2)[C@@H]1O` gave a fold change (FC) [5] of 3.

For `CC1(C)CCC(C)(C)c2cc(C(=O)Nc3ccc(C(=O)O)cc3)ccc21`, the fold change (FC) [5] was 3.9.

`COc1ccc(S(=O)(=O)N(CCO)c2ccccc2CN(C)C/C=C/c2ccc(Cl)cc2)cc1` showed a fold change (FC) [5] of 6.3.

With `C1CCC(/N=C(\NC23CC4CC(CC(C4)C2)C3)N2CCOCC2)CC1` the fold change (FC) [5] was 3.9.

Work on `N[C@@H](COP(=O)(O)O)C(=O)O` yielded a fold change (FC) [5] of 2.8.

`O=S(=O)(NCCNC/C=C/c1ccc(Br)cc1)c1cccc2cnccc12` showed a fold change (FC) [5] of 2.9.

In the case of `CCCCCCCCCCCCCCCCOC[C@@H](COP(=O)([O-])OCC[N+](C)(C)C)OC(C)=O`, the fold change (FC) [5] is reported as 3.2.

With `CCCCc1oc2ccccc2c1C(=O)c1cc(I)c(OCCN(CC)CC)c(I)c1` [AMIODARONE] the Activity [1] was “Active”, the Activity [2] was “Active” and the Activity (CHO-K1) was “inactive”. For the same compound, the Activity [3] was “inactive”, the Activity [4] was “Active” and the Activity (Rattus norvegicus [6]) was 64.8 min. The Activity (Rattus norvegicus [7]) was 82.6 min, the Activity (Rattus norvegicus [8]) was “Non-toxic” and the concentration (Serum) was 3.75 µM.
